These results are taken from patent US9464283B2, “Signaling compositions, methods, and systems for effecting plant growth and crop enhancement” (KamTec, LLC, priority 2013, dated 2016).

One assay concerns Melody variety sunflower. Description: Sunflower seed soak, field plots. Particulars: per Rep; 3 ppm, three hours seed soak. It counts as in vivo. An excerpt:
In this preferred embodiment of the present invention, sunflower seeds were selected from the Melody variety and were soaked for three hours in solutions containing 0.05% Tween 20 and BMTA or BMPA, at a concentration of 3 ppm. Another group of seeds of the same variety was soaked in a solution with only in 0.05% Tween 20 added (control). Following soaking, seeds were desiccated to storage moisture contents and BMTA, BMPA and control seeds were sown in three twenty-five foot plots (Reps) each on May 21 (plots were arranged in a randomized block design). On September 16, sunflower heads were harvested, with a harvest of around 20 heads per plot/Rep on average. The heads were hand-threshed to collect seeds. Moisture, count, and weight data was collected on seeds from each head.

The subject of assay [1] is 'M-202' medium-grain rice (Oryza sativa L.). The assay is described as follows: Rice seed soak with NaCl irrigation (salt tolerance). It counts as in vivo. Particulars: 5 ppm, 1500 ppm NaCl irrigation, planting through completion of study. The method, then: In another preferred embodiment of the present invention, seeds are soaked in prepared bio-regulator solutions for a period of three hours. Rice seeds were selected from ‘M-202’ medium-grain rice (Oryza sativa L.), (Reg. no 72) PI494105 type grains; this selection was meant to represent a typical California rice seed, and was not meant to be limiting. The bio-regulator solutions are prepared using 5 ppm BMTA solution with 0.05% v/v Kinetic® made by Helena Chemical Company. The solution was drained and the seeds planted in starter plastic containers with potting soil. After germination and having grown to 4 inches in height, the plants were transplanted into 6 inch diameter plastic containers. Two sets of three pots each were set up for this study; one set for the test group and one set for the control group. Both the control and test studies were irrigated with 1500 ppm NaCl solution from time of planting until the study was completed. The purpose of the NaCl irrigation was to determine the effect of the bio-regulator treatment in regards to salt tolerances.

Assay [2] has as its system aphid infestation on cotton Bt plant. The assay is described as follows: Aphid infestation of cotton Bt plants after seed soak. It counts as in vivo. Particulars: 5 ppm BMPA seed soak. Here is the method: In this preferred embodiment of the present invention, seeds were soaked for a period of 3 hours in the bio-regulator solution. Cotton Bt were selected and studied to determine if bio-regulator chemistry will enhance or influence the inserted Bt genes of the transgenic plant. The seeds were separated into two different sets on July 2. The first set, Set 1, was soaked in 5 ppm BMPA solution with 0.05% Kinetic®. The second set, Set 2, was soaked in water with 0.05% v/v Kinetic®. The solution was drained and the treated seeds planted in starter plastic trays. After germination and after the seedlings reached the height of four inches, the cotton Bt plants were transplanted into larger six-inch plastic containers. The cotton plants were placed outdoors for the duration of the study. The different sets of plants were regularly observed throughout this study.

The next assay has as its system 'M-202' rice. Description: Rice seed soak 24 hours, tap water irrigation. The settings on record: 5 ppm, 24 hours soak. It counts as in vivo, Oryza sativa L. Here is the method: In this preferred embodiment of the present invention, seeds are soaked in prepared bio-regulator solutions for a period of 24 hours. Rice seeds were selected from the same ‘M-202’ type grains as in the previous study. The bio-regulator solutions were prepared using 5 ppm BMPA solution. The solution was drained and seeds planted in starter plastic containers filled with potting soil. After germination and plant growth reaching height of four inches, rice seedlings were transplanted from their greenhouse containers to six-inch diameter plastic containers and placed outdoor. Again, two sets of three pots for the control and test group were used. These studies were also carried out using an increased amount of BMPA. The amount was increased from 1 ppm to 5 ppm, and the results of the study were similar to the results outlined in the paragraph above.

Several values for one entry are separate records, joined by “and”; a condition that tells them apart may be missing. Equal values may be shown once.

As to `Cc1ccc(C(=O)OCCN(C)Cc2ccccc2)cc1` [BMTA], in the assay on Melody variety sunflower, the “% Moist” value was 13.10% and 13.01% and 14.82%. The “observed growth of rice plant” value in assay [1] was “enhanced growth”.
With `CN(CCOC(=O)COc1ccccc1)Cc1ccccc1` [BMPA], the “delay of the infestation of aphids” value in assay [2] is at most 19 days. The “% Moist” value with Melody variety sunflower was 13.52% and 13.93% and 12.37%. Moreover, in the assay with 'M-202' rice, the “observed growth of rice plant” value was “enhanced growth”.
